Values joined by “and” are separate entries in the source; they are usually repeats but may differ in a detail not shown here. Equal values may be shown once. Read-outs that look alike come from different tables or passages of the source.
What was measured:
AGS = experiment: MTT assay; format: cell-based; details: Homo sapiens, 24 h of treatment
Method in brief: (§1)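 24 h compound treatment, 7 concs 0.625–40.0 μM, n=3; MTT 2 h 37 °C; lysis buffer 25 mM HCl/2% AcOH/3% DMF/5% SDS pH 4.7; A570.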

DLD-1 = experiment: MTT assay; format: cell-based; details: Homo sapiens; DLD-1, 24 h of treatment
Method in brief: as §1

HCC-1954 = experiment: MTT assay; format: cell-based; details: Homo sapiens, HCC1954; HCC-1954, 24 h of treatment
Method in brief: as §1

HCT-116 [1] = experiment: MTT assay; format: cell-based; details: Homo sapiens; HCT-116, 24 h of treatment
Method in brief: as §1

HT-29 = experiment: MTT assay; format: cell-based; details: Homo sapiens; HT-29, 24 h of treatment
Method in brief: as §1

Jurkat = experiment: MTT assay; format: cell-based; details: Homo sapiens, 24 h of treatment
Method in brief: as §1

K562 = experiment: MTT assay; format: cell-based; details: Homo sapiens; K562, 24 h of treatment
Method in brief: as §1

MCF-7 = experiment: MTT assay; format: cell-based; details: Homo sapiens, MCF7; MCF-7, 24 h of treatment
Method in brief: as §1

MDA-MB-231 = experiment: MTT assay; format: cell-based; details: Homo sapiens; MDA-MB-231, 24 h of treatment
Method in brief: as §1

RPMI 8866 = experiment: MTT assay; format: cell-based; details: Homo sapiens; RPMI 8866, 24 h of treatment
Method in brief: as §1

SH SY5Y = experiment: MTT assay; format: cell-based; details: Homo sapiens, 24 h of treatment
Method in brief: as §1

HCT-116 [2] = details: HCT-116, 48 h
HT29 [3] = details: HT29, 48 h
NCI/ADR-RES = details: 48 h
A498 = details: A498, 48 h
Melanoma = Melanoma subpanel
CCRF-CEM = experiment: cells; details: Homo sapiens, 48 h
NCI-H23 = experiment: cells; details: Homo sapiens, NCI-H23, 48 h; for CC50: read-out: LC50, NCI-H23, 48 h
HT29 [4] = experiment: cells; details: Homo sapiens, HT-29, 48 h; for GI50: HT29, 48 h
LOX IMVI = experiment: cells; details: Homo sapiens, 48 h; for CC50: read-out: LC50, LOX IMVI, 48 h
SK-MEL-5 = experiment: cells; details: Homo sapiens, SK-MEL-5, 48 h; for CC50: read-out: LC50, SK-MEL-5, 48 h
OVCAR-3 = experiment: cells; details: Homo sapiens, OVCAR-3, 48 h
786-0 = experiment: cells; details: Homo sapiens, 786-0, 48 h
CAKI-1 = experiment: cells; details: Homo sapiens, CAKI-1, 48 h
T-47D = experiment: cells; details: Homo sapiens, T47D, 48 h; for CC50: read-out: LC50
CNS cancer = experiment: cells; details: Homo sapiens; for GI50: read-out: MG_MID GI50; for CC50: read-out: MG_MID LC50
HOP-92 = experiment: NCI-60 SRB screen; details: HOP-92, 48 h
NCI-H322M = experiment: NCI-60 SRB screen; details: 48 h; for CC50: read-out: LC50, NCI-H322M, 48 h
SNB-19 = experiment: NCI-60 SRB screen; details: for GI50 / CC50 / TGI: SNB-19, 48 h; for CC50: read-out: LC50, SNB-19, 48 h
SK-MEL-2 = experiment: NCI-60 SRB screen; details: SK-MEL-2, 48 h; for CC50: Homo sapiens, read-out: LC50, SK-MEL-2, 48 h
MDA-MB-468 = experiment: NCI-60 SRB screen; details: MDA-MB-468, 48 h
[5] = Homo sapiens, read-out: LC50, HOP-92, 48 h

Work on `O=C(O)CCCCCN1C(=O)/C(=C/C=C/c2ccc([N+](=O)[O-])o2)SC1=S` [14b, 6-((Z)-5-((E)-3-(5-nitrofuran-2-yl)allylidene)-4-oxo-2-thioxothiazolidin-3-yl)hexanoic acid] yielded an IC50 (AGS) of 2.57 µM, an IC50 (DLD-1) of 1.8 µM and an IC50 (HCC-1954) of 3.3 µM. For the same molecule, the IC50 (HCT-116 [1]) was 2.11 µM, the IC50 (HT-29) was 4.52 µM and the IC50 (Jurkat) was 0.28 µM. The IC50 (K562) was 1.53 µM, the IC50 (MCF-7) was 0.85 µM and the IC50 (MDA-MB-231) was 6.61 µM. It also gave an IC50 (RPMI 8866) of 3.13 µM, an IC50 (SH SY5Y) of 4.11 µM and a GI50 (HCT-116 [2]) of 0.2 µM. The GI50 (HT29 [3]) was 1.13 µM, the TGI (HT29 [3]) was 2.71 µM and 3.39 µM and the GI50 (SF-268; SF-268, 48 h) was 1.32 µM. The TGI (SF-268; SF-268, 48 h) was 2.71 µM and 3.63 µM, the CC50 (SF-268; human, 48 h) was 9.99 µM and the GI50 (NCI/ADR-RES) was 0.43 µM. The TGI (NCI/ADR-RES) was 1.85 µM and 2.39 µM, the GI50 (A498) was 10.2 µM and the TGI (A498) was 20.8 µM and 22.8 µM. The “MG_MID TGI” value (Melanoma) was 1.82 µM, the GI50 (CCRF-CEM) was 0.18 µM and the GI50 (NCI-H23) was 1.53 µM. For the same molecule, the CC50 (NCI-H23) was 6.29 µM, the GI50 (HT29 [4]) was 1.19 µM and the GI50 (LOX IMVI) was 0.2 µM. For the same molecule, the CC50 (LOX IMVI) was 0.88 µM, the CC50 (SK-MEL-5) was 4.6 µM and the GI50 (OVCAR-3) was 1.12 µM. For the same molecule, the GI50 (786-0) was 0.61 µM, the GI50 (CAKI-1) was 0.83 µM and the CC50 (T-47D) was over 100 µM. For the same molecule, the GI50 (CNS cancer) was 1.14 µM, the CC50 (CNS cancer) was 6.09 µM and the GI50 (HOP-92) was 1.05 µM. The TGI (HOP-92) was 3.34 µM and 2.48 µM, the GI50 (HOP-92; Homo sapiens) was 1.74 µM and the CC50 (HOP-92; [5]) was 6.41 µM. For the same molecule, the GI50 (NCI-H322M) was 1.82 µM, the TGI (NCI-H322M) was 3.39 µM and 3.55 µM and the GI50 (NCI-H322M; Homo sapiens) was 1.68 µM. For the same molecule, the CC50 (NCI-H322M; Homo sapiens) was 6.84 µM, the GI50 (SNB-19; Homo sapiens) was 1.76 µM and the CC50 (SNB-19; Homo sapiens) was 7.43 µM. The GI50 (SNB-19) was 1.45 µM, the TGI (SNB-19) was 3.62 µM and 3.11 µM and the CC50 (SK-MEL-2) was 6.01 µM. The TGI (SK-MEL-2) was 2.95 µM and 2.33 µM and the CC50 (MDA-MB-468; Homo sapiens, read-out: LC50, MDA-MB-468, 48 h) was 5.27 µM.
`O=C(O)CCCN1C(=O)/C(=C/C=C/c2ccc([N+](=O)[O-])o2)SC1=S` [13b, 4-((Z)-5-((E)-3-(5-Nitrofuran-2-yl)allylidene)-4-oxo-2-thioxothiazolidin-3-yl)butanoic acid] gave an IC50 (AGS) of 2.1 µM, an IC50 (DLD-1) of 3.18 µM and an IC50 (HCC-1954) of 3.12 µM. For the same molecule, the IC50 (HCT-116 [1]) was 3.97 µM, the IC50 (HT-29) was 4.39 µM and the IC50 (Jurkat) was 0.5 µM. For the same molecule, the IC50 (K562) was 3.57 µM, the IC50 (MCF-7) was 1.63 µM and the IC50 (MDA-MB-231) was 8.73 µM. For the same molecule, the IC50 (RPMI 8866) was 3.94 µM, the IC50 (SH SY5Y) was 8.41 µM and the GI50 (HCT-116 [2]) was 0.17 µM. The TGI (HCT-116 [2]) was 1.15 µM and 0.64 µM, the GI50 (HT29 [3]) was 0.26 µM and the TGI (SF-268; SF-268, 48 h) was 2.84 µM and 2.89 µM. The GI50 (NCI/ADR-RES) was 0.26 µM, the TGI (NCI/ADR-RES) was 1.23 µM and 0.77 µM and the GI50 (A498) was 3.32 µM. The TGI (A498) was 11.5 µM and 8.16 µM, the “MG_MID TGI” value (Melanoma) was 1.46 µM and the GI50 (CCRF-CEM) was 0.19 µM. The CC50 (NCI-H23) was 6.24 µM, the GI50 (HT29 [4]) was 0.45 µM and the CC50 (HT29 [4]; read-out: LC50, HT29, 48 h) was 5.44 µM. The GI50 (LOX IMVI) was 0.19 µM, the CC50 (LOX IMVI) was 0.92 µM and the GI50 (SK-MEL-5) was 0.61 µM. For the same molecule, the CC50 (SK-MEL-5) was 4.61 µM, the GI50 (OVCAR-3) was 0.77 µM and the GI50 (786-0) was 0.32 µM. For the same molecule, the GI50 (CAKI-1) was 0.67 µM, the GI50 (T-47D; T-47D) was 0.34 µM and the CC50 (T-47D) was over 100 µM. For the same molecule, the GI50 (CNS cancer) was 0.8 µM, the CC50 (CNS cancer) was 6.68 µM and the CC50 (HOP-92; [5]) was 6.33 µM. For the same molecule, the CC50 (HOP-92; read-out: LC50) was 4.24 µM, the GI50 (NCI-H322M) was 1.97 µM and the TGI (NCI-H322M) was 8.09 µM and 5.50 µM. It also gave a GI50 (NCI-H322M; Homo sapiens) of 2.52 µM, a CC50 (NCI-H322M; Homo sapiens) of 28.3 µM and a CC50 (SNB-19; Homo sapiens) of 6.05 µM. For the same molecule, the “growth GP” value (SNB-19; SNB-19, 10 μM, 48 h) was -96.10%, the TGI (SNB-19) was 3.16 µM and 2.10 µM and the CC50 (SK-MEL-2) was 6.12 µM. The GI50 (MDA-MB-468; Homo sapiens) was 0.33 µM and the GI50 (MDA-MB-468) was 0.17 µM.
